Measurements published in US9416136B2, “Pyrrolopyrimidine compounds and their uses” (Novartis AG, priority 2008, dated 2016).

Legend:
pRb negative cells = test: cell proliferation of pRb negative cells; type: cell-based; conditions: high concentrations
Description: (§1) Moreover, the inhibitory effects of the CDK4 inhibitor are absolutely dependent upon the presence of the Retinoblastoma protein (pRb). Activities in pRb negative cells for candidate CDK4 inhibitors indicate that the compounds have off-target activities and not as selective.

cell cycle = cell cycle analysis; type: cell-based; conditions: concentrations of 1 and 10 uM
Description: as §1

CN(C)C(=O)c1cc2cnc(Nc3ccc(N4CCNCC4)cc3)nc2n1C1CCCC1 [Example 200]
inhibition of cell proliferation of pRb negative cells (pRb negative cells): does inhibit the cell proliferation of pRb negative cells at high concentrations
cell cycle arrest phase (cell cycle): starts to induce G2/M phase blocks
